Target: T1, rhIDO1 (holo-IDO1) (Homo sapiens, UniProt P14902)
T1 construct: His; made in house; host or cells: E. coli
Assay: UV/Vis spectrophotometry of the Soret peak (heme loss)
Format: binding
Conditions: holo-IDO1, 2 h at 37 °C
Procedure: using the ChemiDoc MP Imaging System (Bio-Rad Laboratories, DE). IDO1 protein levels were normalized to the levels of reference protein vinculin.
BxPC-3 cells (10,000 cells/well) were seeded in 96-well plates and incubated for 24 h prior to addition of 50 ng/mL IFN-γ and compounds at indicated concentrations for 48 h. Cells were fixed with 4% paraformaldehyde for 20 min at room temperature followed by permeabilization with 0.5% Triton X-100 for 15 min at room temperature. Afterwards, unspecific binding sites were blocked with 5% non-fat milk in PBS with 0.1% (v/v) Tween-20 (PBS-T) for 60 min at room temperature followed by overnight incubation at 4°C with the primary antibodies. […]
11 µM rhIDO1 was incubated with compounds at indicated concentrations for 60 min at 37°C in 50 mM potassium phosphate buffer (16.9 mM K2HPO4, 33.1 mM, KH2PO4, pH 6.5). The thermal protein stability from 20°C to 90°C (1°C/min) was measured by means of the intrinsic tryptophan/tyrosine fluorescence using the Prometheus™ NT.48 (NanoTemper® Technologies, DE). Melting scans, first derivatives of melting scans and melting temperatures were analyzed using PR.ThermControl software (NanoTemper® Technologies, DE). […]
transparent microplates (UV-STAR®, Greiner AG, AT). Subsequently, absorbance spectra from 250 nm to 550 nm were recorded on the Spark® Multimode Microplate Reader (Tecan, AT). […]

T1 sequence (P14902 whole entry): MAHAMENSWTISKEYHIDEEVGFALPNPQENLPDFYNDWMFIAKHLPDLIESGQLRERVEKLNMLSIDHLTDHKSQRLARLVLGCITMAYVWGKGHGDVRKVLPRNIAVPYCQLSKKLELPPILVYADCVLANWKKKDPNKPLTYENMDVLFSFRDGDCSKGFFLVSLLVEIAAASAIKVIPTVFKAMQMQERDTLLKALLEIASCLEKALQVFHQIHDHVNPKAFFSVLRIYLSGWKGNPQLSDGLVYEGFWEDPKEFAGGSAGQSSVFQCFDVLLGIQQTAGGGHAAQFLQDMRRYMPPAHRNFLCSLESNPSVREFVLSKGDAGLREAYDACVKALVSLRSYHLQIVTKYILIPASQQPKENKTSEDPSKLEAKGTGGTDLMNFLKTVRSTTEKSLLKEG

CCOC(=O)C1=CC[C@](C(=O)OC)(c2cc3ccccc3n2C)N(S(=O)(=O)c2ccc(C)cc2)[C@@H]1C(=O)OC(C)(C)C [Compound 3d]
effect on Soret peak at 404 nm (heme loss): reduced the Soret peak

— paper PMC9804781, “Identification of a Novel Pseudo‐Natural Product Type IV IDO1 Inhibitor Chemotype” (Angewandte Chemie (International Ed. in English), 2022)
